Patent US20230100367A1, “METHODS OF TREATING CDGSH IRON SULFUR DOMAIN 2 INSUFFICIENCY-ASSOCIATED DISORDERS” (National Yang Ming Chiao Tung University, priority 2021, published 2023)

Tests used:
Cisd2 hKO-het mice = test: In vivo study for treating nonalcoholic fatty liver disease (NAFLD); conditions: 0.015 wt % in diet for 4 weeks
Procedure: Compound 1 was evaluated for its anti-nonalcoholic fatty liver disease (“NAFLD”) effect and in vivo toxicity following an assay described below.
Cisd2 floxed allele (Cisd2 f/f) mice were prepared following a procedure described in Wang et al., Hum. Mol. Genet.23, 4770-85 (2014). To obtain Cisd2 heterozygous hepatocyte-specific knockout (Cisd2 hKO-het, Cisd2 f/+; Alb-Cre Tg), Cisd2 f/f mice were bred with Albumin-Cre transgenic (Alb-Cre Tg, JAX003574) mice. After one generation, Cisd2 hKO-het mice were obtained. Male mice were chosen to be used in this study. All mice have a pure or congenic C57BL/6 background and were bred/housed in a specific pathogen-free facility with a 12 h light/12 h dark cycle at a temperature of 20-22° C. Groups of mice at 8 weeks old were provided a diet (AIN93G, TestDiet) containing a vehicle (0.14 wt % of DMF and 0.15 wt % of Cremophor® EL) or compound 1 (0.015 wt %) for 4 weeks.
Histopathology was used to evaluate the efficacy of Compound 1 in ameliorating NAFLD. Liver tissues were collected and fixed with 10% neutral buffered formalin at 4° C. overnight. They were then processed in a tissue processor (STP120, Microm, Thermo Fisher Scientific Inc., Waltham, Mass.), followed by embedding in paraffin. H&E of tissue sections (3-4 μm) were carried out by a standard protocol. […]

WT mice = test: In vivo fructose-induced NASH model, wild-type mice; conditions: 0.015 wt % in diet for 5 months
Excerpt: Compound 1 was used to alleviate nonalcoholic steatohepatitis (NASH) in wild-type and Cisd2 hKO male mice described above.
Cisd2 hKO were bred for two generations. […] They were fed 30% (w/v) fructose (Alfa Aesar, Tewksbury, Mass.) in drinking water to establish a fructose-induced NASH model. Groups of mice at 2 months old were provided with a diet (AIN93G, TestDiet, St. Louis, Mo.) containing a vehicle (0.14 wt % of DMF and 0.15 wt % of Cremophor® EL) or Compound 1 (0.015 wt %) for 5 months. The food and drinking water were provided ad libitum.
Histopathology was used to evaluate the efficacy of Compound 1 in alleviating NASH. Liver tissues were processed and stained as described in Example 3 above.
An oral glucose tolerance test (GTT) and an insulin tolerance test (ITT) were performed to study beneficial effects of Compound 1 in the fructose-induced glucose intolerance and hepatic insulin resistant mouse model. In the oral glucose tolerance test, mice were fasted for 14 hours (7 p.m. to 9 a.m.) and then were orally administrated with glucose water (1.5 mg/g body weight) using a feeding needle. […] Blood glucose levels were measured using OneTouch® Ultra glucose test strips and SureStep® Meter (LifeScan, Milpitas, Calif.). […] Blood samples were collected and monitored at predetermined time points.

[1] = system: Cisd2 promoter with firefly luciferase reporter (HEK293-CISD2); test: Cisd2-luciferase reporter assay; type: cell-based; conditions: Homo sapiens; HEK293-CISD2 cells, 24 h incubation, luciferase activity
Procedure: Compounds 1-35 were tested for increasing the level of Cisd2 in human embryonic kidney cells 293 (HEK293), a transfected cell line expressing Cisd2, using the Cisd2-luciferase reporter assay as described below.
The transfected HEK293 cells stably expressed Cisd2 promoter with firefly luciferase reporter (“HEK293-CISD2”). They were kept in Dulbecco's modified Eagle's medium (“DMEM”) (Gibco, New York, N.Y.). Culture medium was supplemented with 10% heat-inactivated fetal bovine serum (“FBS”), 2 mM L-Glutamine, 1 mM sodium pyruvate, 0.1% MEM Non-Essential Amino Acids, 1 μg/ml puromycin and 1% penicillin/streptomycin (HyClone, Logan, Utah). The cells were maintained at 37° C. in an incubator (Thermo Fisher Scientific, Waltham, Mass.) with an atmosphere of 5% CO2. The stably transfected cells were seeded in 384-well plates at a density of 3×10^3 cells/well. After incubation with a tested compound at 37° C. for 24 h, ONE-Glo™ Luciferase Assay System (Promega, Madison, Wis.) was added at room temperature for 10 minutes to detect any luciferase activity. Luminescence intensity was registered using plate reader BioTek Synergy Neo2™ (Agilent, Santa Clara, Calif.).
EC50 values in this table are presented in […] classes, i.e., A: <1 μM and B: 1 μM-10 μM.

COC(=O)c1c(N)sc(C(=O)Nc2ccc(C)cc2C)c1C [Compound 1, Methyl 2-amino-5-[(2,4-dimethylphenyl)carbamoyl]-4-methylthiophene carboxylate]
liver and kidney toxicity (serum ALT, AST, BUN, CRE) (Cisd2 hKO-het mice): without detectable liver and kidney toxicity | expression level of Cisd2 protein (Cisd2 hKO-het mice; Cisd2+/- mice, control group 0.43): 0.7 | toxicity (WT mice): without obvious toxicity | Cisd2 protein level (WT mice; 30% fructose in drinking water, control group 0.4): 0.8 | EC50 [1]: < 1000 nM
